# Molecular target: Myc/Max binding to DNA (Homo sapiens, UniProt P01106)
# Assay: Electrophoretic mobility shift assay (EMSA) of Myc/Max binding to DNA
# Type: biochemical
# Conditions: EMSA, 100 uM test compound; read-out: Bound DNA (%) (100uM)
# Method: We also tested our best hit compound Min9 (NUCC-0176234) and newly synthesized analogs for effects of these compounds on Myc/Max binding to DNA in electrophoretic mobility shift assays (EMSAs). (See FIG. 5a and FIG. 5b). We expected the active compounds to impair Myc/Max binding to DNA. Several strucutural analogs of Min9 were tested over multiple doses for inhibiting Myc-DNA binding and we observed a dose-dependent inhibition. (See FIG. 5c).
# Additional compounds were synthesized and tested in the EMSA assay at concentrations of 200 μM, 100 μM, and 50 μM.
# Myc/Max binding to DNA, sequence (P01106 whole entry): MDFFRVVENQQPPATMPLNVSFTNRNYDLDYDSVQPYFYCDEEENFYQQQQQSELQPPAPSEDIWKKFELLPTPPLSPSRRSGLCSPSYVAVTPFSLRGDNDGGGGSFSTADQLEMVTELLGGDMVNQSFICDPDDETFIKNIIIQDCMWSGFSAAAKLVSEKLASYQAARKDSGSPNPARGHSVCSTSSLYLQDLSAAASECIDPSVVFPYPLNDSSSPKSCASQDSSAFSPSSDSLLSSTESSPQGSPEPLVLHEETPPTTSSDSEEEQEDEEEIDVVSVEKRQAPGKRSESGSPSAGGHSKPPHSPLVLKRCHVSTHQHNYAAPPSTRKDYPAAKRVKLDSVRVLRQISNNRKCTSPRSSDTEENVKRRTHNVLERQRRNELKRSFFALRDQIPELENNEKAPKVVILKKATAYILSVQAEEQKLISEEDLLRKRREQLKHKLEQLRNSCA
row,Structure (SMILES),remaining activity at 100 µM
1,Oc1cc(OCc2ccc(Cl)cc2)ccc1-c1n[nH]c(C(F)(F)F)c1-c1cc(C(F)(F)F)cc(C(F)(F)F)c1 [compound 0196362],33%
2,Oc1cc(OCc2ccc(Cl)cc2)ccc1-c1n[nH]c(C(F)(F)F)c1-c1ccccc1Cl [compound 0196363],5%
3,Cn1nc(-c2ccc(OCc3ccc(Cl)cc3)cc2O)c(-c2cccnc2)c1C(F)(F)F [compound 0196364],132%
4,Cn1nc(C(F)(F)F)c(-c2cccnc2)c1-c1ccc(OCc2ccc(Cl)cc2)cc1O [compound 0196365],98%
5,Oc1cc(OCc2ccc(Cl)cc2)ccc1-c1n[nH]c(C(F)(F)F)c1-c1cccnc1 [compound 0196366],79%
6,Oc1cc(OCc2ccc(Cl)cc2)ccc1-c1n[nH]cc1-c1ccccc1 [compound 0198293],70%
7,Cn1cc(-c2ccccc2)c(-c2ccc(OCc3ccc(Cl)cc3)cc2O)n1 [compound 0198294],97%
8,Oc1cc(OCc2ccc(Cl)cc2)ccc1-c1n[nH]c(C(F)(F)F)c1-c1ccccc1 [compound 0198295],0%
9,Cn1nc(C(F)(F)F)c(-c2ccccc2)c1-c1ccc(OCc2ccc(Cl)cc2)cc1O [compound 0198296],74%
10,Cn1nc(-c2ccc(OCc3ccc(Cl)cc3)cc2O)c(-c2ccccc2)c1C(F)(F)F [compound 0198297],89%
11,Cc1[nH]nc(-c2ccc(OCc3ccc(Cl)cc3)cc2O)c1-c1ccccc1 [compound 0198298],88%
12,Cc1nn(C)c(-c2ccc(OCc3ccc(Cl)cc3)cc2O)c1-c1ccccc1 [compound 0198299],90%
13,Cc1c(-c2ccccc2)c(-c2ccc(OCc3ccc(Cl)cc3)cc2O)nn1C [compound 0198300],94%
14,CCc1[nH]nc(-c2ccc(OCc3ccc(Cl)cc3)cc2O)c1-c1ccccc1 [compound 0198301],105%
15,CCc1nn(C)c(-c2ccc(OCc3ccc(Cl)cc3)cc2O)c1-c1ccccc1 [compound 0198302],100%
16,CCc1c(-c2ccccc2)c(-c2ccc(OCc3ccc(Cl)cc3)cc2O)nn1C [compound 0198303],105%
17,COc1ccc(-c2c[nH]nc2-c2ccc(OCc3ccc(Cl)cc3)cc2O)cc1 [compound 0198304],98%
18,COc1ccc(-c2cn(C)nc2-c2ccc(OCc3ccc(Cl)cc3)cc2O)cc1 [compound 0198305],106%
19,COc1ccc(-c2c(C)nn(C)c2-c2ccc(OCc3ccc(Cl)cc3)cc2O)cc1 [compound 0198306],105%
20,COc1ccc(-c2c(-c3ccc(OCc4ccc(Cl)cc4)cc3O)nn(C)c2C)cc1 [compound 0198307],111%
21,COc1cccc(-c2c[nH]nc2-c2ccc(OCc3ccc(Cl)cc3)cc2O)c1 [compound 0198308],92%
22,COc1cccc(-c2c(-c3ccc(OCc4ccc(Cl)cc4)cc3O)n[nH]c2C(F)(F)F)c1 [compound 0198309],2%
23,COc1cccc(-c2c(C(F)(F)F)nn(C)c2-c2ccc(OCc3ccc(Cl)cc3)cc2O)c1 [compound 0198310],86%

row,Structure (SMILES),remaining activity at 100 µM
1,COc1cccc(-c2c(-c3ccc(OCc4ccc(Cl)cc4)cc3O)nn(C)c2C(F)(F)F)c1 [compound 0198311],105%
2,COc1cccc(-c2c(-c3ccc(OCc4ccc(Cl)cc4)cc3O)n[nH]c2C)c1 [compound 0198312],104%
3,COc1cccc(-c2c(C)nn(C)c2-c2ccc(OCc3ccc(Cl)cc3)cc2O)c1 [compound 0198313],105%
4,COc1cccc(-c2c(-c3ccc(OCc4ccc(Cl)cc4)cc3O)nn(C)c2C)c1 [compound 0198314],104%
5,CCc1[nH]nc(-c2ccc(OCc3ccc(Cl)cc3)cc2O)c1-c1cccc(OC)c1 [compound 0198315],105%
6,CCc1nn(C)c(-c2ccc(OCc3ccc(Cl)cc3)cc2O)c1-c1cccc(OC)c1 [compound 0198316],101%
7,CCc1c(-c2cccc(OC)c2)c(-c2ccc(OCc3ccc(Cl)cc3)cc2O)nn1C [compound 0198317],126%
8,Oc1cc(OCc2ccc(Cl)cc2)ccc1-c1n[nH]cc1-c1cc(C(F)(F)F)cc(C(F)(F)F)c1 [compound 0198318],32%
9,Cn1cc(-c2cc(C(F)(F)F)cc(C(F)(F)F)c2)c(-c2ccc(OCc3ccc(Cl)cc3)cc2O)n1 [compound 0198319],96%
10,Oc1cc(OCc2ccc(Cl)cc2)ccc1-c1n[nH]cc1-c1cccnc1 [compound 0198320],52%
11,Cn1cc(-c2cccnc2)c(-c2ccc(OCc3ccc(Cl)cc3)cc2O)n1 [compound 0198321],96%
12,Oc1cc(OCc2ccc(Cl)cc2)ccc1-c1n[nH]cc1-c1ccoc1 [compound 0198322],28%
13,Cn1ncc(-c2ccoc2)c1-c1ccc(OCc2ccc(Cl)cc2)cc1O [compound 0198323],70%
14,Cn1cc(-c2ccoc2)c(-c2ccc(OCc3ccc(Cl)cc3)cc2O)n1 [compound 0198324],80%
15,Oc1cc(OCc2ccc(Cl)cc2)ccc1-c1n[nH]c(C(F)(F)F)c1-c1ccoc1 [compound 0198325],60%
16,COc1cccc(-c2cn(C)nc2-c2ccc(OCc3ccc(Cl)cc3)cc2O)c1 [compound 0198326],106%
17,Cc1cc(C)cc(-c2c[nH]nc2-c2ccc(OCc3ccc(Cl)cc3)cc2O)c1 [compound 0198352],56%
18,Cc1cc(C)cc(-c2cn(C)nc2-c2ccc(OCc3ccc(Cl)cc3)cc2O)c1 [compound 0198353],104%
19,Cc1cc(C)cc(-c2cnn(C)c2-c2ccc(OCc3ccc(Cl)cc3)cc2O)c1 [compound 0198354],85%
20,Cc1ccccc1-c1c[nH]nc1-c1ccc(OCc2ccc(Cl)cc2)cc1O [compound 0198355],75%
21,Cc1ccccc1-c1cn(C)nc1-c1ccc(OCc2ccc(Cl)cc2)cc1O [compound 0198356],118%
22,COc1ccccc1-c1c[nH]nc1-c1ccc(OCc2ccc(Cl)cc2)cc1O [compound 0198357],62%
23,COc1ccccc1-c1cn(C)nc1-c1ccc(OCc2ccc(Cl)cc2)cc1O [compound 0198358],93%

row,Structure (SMILES),remaining activity at 100 µM
1,Cc1cc(C)c(-c2c[nH]nc2-c2ccc(OCc3ccc(Cl)cc3)cc2O)c(C)c1 [compound 0198359],35%
2,Cc1cc(C)c(-c2cn(C)nc2-c2ccc(OCc3ccc(Cl)cc3)cc2O)c(C)c1 [compound 0198360],101%
3,Cn1cc(-c2c[nH]nc2-c2ccc(OCc3ccc(Cl)cc3)cc2O)cn1 [compound 0198361],87%
4,Cn1cc(-c2cn(C)nc2-c2ccc(OCc3ccc(Cl)cc3)cc2O)cn1 [compound 0198362],109%
5,N#Cc1ccc(-c2c(-c3ccc(OCc4ccc(Cl)cc4)cc3O)n[nH]c2C(F)(F)F)cc1 [compound 0198391],4%
6,Cn1nc(C(F)(F)F)c(-c2ccc(C#N)cc2)c1-c1ccc(OCc2ccc(Cl)cc2)cc1O [compound 0198392],54%
7,Cn1nc(-c2ccc(OCc3ccc(Cl)cc3)cc2O)c(-c2ccc(C#N)cc2)c1C(F)(F)F [compound 0198393],71%
8,NC(=O)c1ccc(-c2c(-c3ccc(OCc4ccc(Cl)cc4)cc3O)n[nH]c2C(F)(F)F)cc1 [compound 0198394],30%
9,C/C(=N\N)c1ccc(-c2c(-c3ccc(OCc4ccc(Cl)cc4)cc3O)n[nH]c2C(F)(F)F)cc1 [compound 0198395],109%
10,CN/N=C(\C)c1ccc(-c2c(C(F)(F)F)nn(C)c2-c2ccc(OCc3ccc(Cl)cc3)cc2O)cc1 [compound 0198396],56%
11,CN/N=C(\C)c1ccc(-c2c(-c3ccc(OCc4ccc(Cl)cc4)cc3O)nn(C)c2C(F)(F)F)cc1 [compound 0198397],82%
12,N#Cc1cccc(-c2c(-c3ccc(OCc4ccc(Cl)cc4)cc3O)n[nH]c2C(F)(F)F)c1 [compound 0198398],3%
13,Cn1nc(C(F)(F)F)c(-c2cccc(C#N)c2)c1-c1ccc(OCc2ccc(Cl)cc2)cc1O [compound 0198399],2%
14,Cn1nc(-c2ccc(OCc3ccc(Cl)cc3)cc2O)c(-c2cccc(C#N)c2)c1C(F)(F)F [compound 0198400],48%
15,NC(=O)c1cccc(-c2c(-c3ccc(OCc4ccc(Cl)cc4)cc3O)n[nH]c2C(F)(F)F)c1 [compound 0198401],77%
16,Cn1nc(C(F)(F)F)c(-c2cccc(C(N)=O)c2)c1-c1ccc(OCc2ccc(Cl)cc2)cc1O [compound 0198402],57%
17,C/C(=N\N)c1cccc(-c2c(-c3ccc(OCc4ccc(Cl)cc4)cc3O)n[nH]c2C(F)(F)F)c1 [compound 0198403],44%
18,CN/N=C(\C)c1cccc(-c2c(C(F)(F)F)nn(C)c2-c2ccc(OCc3ccc(Cl)cc3)cc2O)c1 [compound 0198404],67%
19,CN/N=C(\C)c1cccc(-c2c(-c3ccc(OCc4ccc(Cl)cc4)cc3O)nn(C)c2C(F)(F)F)c1 [compound 0198405],89%
20,CCc1ccc(Oc2c(-c3ccc(O)cc3O)n[nH]c2C(F)(F)F)cc1 [compound 0198406],0%
21,Cn1nc(C(F)(F)F)c(Br)c1-c1ccc(OCc2ccc(Cl)cc2)cc1O [compound 0198407],13%
22,Cn1nc(-c2ccc(OCc3ccc(Cl)cc3)cc2O)c(Br)c1C(F)(F)F [compound 0198408],136%

# Reference: patent publication US20170253581A1, “SUBSTITUTED HETEROCYCLES AS c-MYC TARGETING AGENTS” (Northwestern University, priority 2016, published 2017)
